The values below are quoted from earlier work in US11612614B2, “Isomorphs of Remdesivir and methods for synthesis of same” (Anzalp Pharmasolutions Pvt. Ltd., priority 2020, dated 2023).

Entries after “also recorded” stand apart in the source; their conditions may differ.

Assay in data set [1]: not given
The source holds these as a separate data set.

`CCC(CC)COC(=O)[C@H](C)N[P@](=O)(OC[C@H]1O[C@@](C#N)(c2ccc3c(N)ncnn23)[C@H](O)[C@@H]1O)Oc1ccccc1` [Remdesivir, 2-ethylbutyl (2S)-2-[[[(2R,3S,4R,5R)-5-(4-aminopyrrolo[2,1-f][1,2,4]triazin-7-yl)-5-cyano-3,4-dihydroxyoxolan-2-yl]methoxy-phenoxyphosphoryl]amino]propanoate]: the solubility in ethanol entry (ethanol) is on record as “soluble”. Moreover, where the note is “water”, the solubility in water entry is “practically insoluble; also recorded: relatively insoluble”. Moreover, the “chemical stability in aqueous media” value in data set [1] is listed as “chemically unstable”.
